Data on twelve compounds can be found in patent US8592435B2, “Nitrogen-containing six-membered aromatic ring derivatives and pharmaceutical products containing the same” (Daiichi Sankyo Company, Limited, priority 2007, dated 2013).

In assay [1] the test system is mixture of human vascular endothelial cells and fibroblasts. Briefly: Test Example 2: ability to promote angiogenesis (angiogenesis test kit KZ-1000). The format is cell-based. To be noted: Homo sapiens, 216 h, lumen length, % of control, day 9, read-out: Promotion of angiogenesis (%); for activity at 3 µM: Compound Conc. = 3 μM; for activity at 0.3 µM: Compound Conc. = 0.3 μM. The protocol: Using an angiogenesis test kit containing a mixture of human vascular endothelial cells and fibroblasts [KZ-1000; Kurabo], the ability of test compounds to promote angiogenesis was evaluated. Each test compound was added on days 1, 4, and 7 of the incubation period. On day 9, cells were immunostained with CD31 and photographed. Control cells were cultured under the same conditions, only without the addition of a test compound, and photographed.
The lumen length of the blood vessel was quantified from the obtained images using an angiogenesis-quantification software. The ability (%) of each test compound to promote angiogenesis was calculated from the following equation: The ability to promote angiogenesis (%)=[(measurement with a compound of interest)/(measurement of control)]×100
Example Compounds shown in Table 26 were used as test compounds.
Since bFGF gives a measurement of about 120 in this test, 120 is used as the threshold to determine whether a given compound has the ability to promote angiogenesis.

A further assay concerns hippocampal neurons. Briefly: Test Example 1: ability to promote axonal outgrowth. It is filed as cell-based, Wistar rats. To be noted: Hippocampal neuron, 216 h, % of control, rat hippocampal neurons, day 9, read-out: Promotion of axonal outgrowth (%); for activity at 3 µM: Compound Conc. = 3 μM; for activity at 0.3 µM: Compound Conc. = 0.3 μM. The protocol:
According to the method of M. P. Mattson [M. P. Mattson, Brain Res. Rev., 13, 179, (1988)], the hippocampal region was isolated from 18-day embryos of female Wistar rats and the neurons were dispersed using the papain dissociation system. Hippocampal neuron were suspended in 5% Nu-serum+B27 supplement+Neurobasal medium at 5×10^4 cells/well/2 mL. 2 mL of the cell suspension were inoculated on a poly-D-lysine-coated 36φ dish and the neuron were incubated at 37° C. in a 5% CO2 incubator.
On day 3 of the incubation period, 1 mL of the culture medium was replaced with 1 mL of 5% Nu-serum+B27 supplement+Neurobasal medium containing 2 mM AraC. Each test compound was added to the culture on day 3 and day 7 of the incubation period. On day 9, cells were fixed in a 4% paraformaldehyde solution. The nerve axons of the fixed cells were stained with the Rabbit anti-growth-associated protein-43 polyclonal antibody and the stained cells were quantified using Kurabo neuron outgrowth-quantication software.
The ability (%) of each test compound to promote axonal outgrowth was calculated from the following equation: The ability to promote axonal outgrowth (%)=[(measurement with a compound of interest)/(measurement of control)]×100
Example Compounds shown in Table 25 were used as test compounds and were each added at concentrations of 3 μM and 0.3 μM.
Since bFGF gives a measurement of about 120 in this test, 120 is used as the threshold to determine whether a given compound has the ability to promote axonal outgrowth

Structures can show the parent of a compound that is named as a salt.

For the compound `Cc1nc(OCC(=O)N(C)C2CCN(C3CCCCC3)CC2)nc(C)c1N` [Compound 79, 2-(5-amino-4,6-dimethylpyrimidine-2-yloxy)-N-(1-cyclohexylpiperidine-4-yl)-N-methylacetamide], the activity at 3 µM in assay [1] was 133%; with hippocampal neurons, 123%.

Take `CC(=O)N1CCC(N(C)C(=O)COc2nc(C)c(N)c(C)n2)CC1` [Compound 77, N-(1-acetylpiperidine-4-yl)-2-(5-amino-4,6-dimethylpyrimidine-2-yloxy)-N-methylacetamide hydrochloride]: the activity at 3 µM in assay [1] stood at 149%; in the assay on hippocampal neurons, 135%.

In the case of `CN(C(=O)COc1nccnc1Cl)C1CCN(Cc2ccccc2)CC1` [Compound 128, N-(1-benzylpiperidine-4-yl)-2-(3-chloropyrazine-2-yloxy)-N-methylacetamide hydrochloride], the activity at 0.3 µM in assay [1] stood at 115%. In addition, in the assay with hippocampal neurons, the activity at 3 µM is 156%.

In the case of `Cc1nc(OCC(=O)N(C)C2CCN(Cc3ccc(Cl)cc3)CC2)nc(C)c1N` [Compound 72, 2-(5-amino-4,6-dimethylpyrimidine-2-yloxy)-N-(1-(4-chlorobenzyl)piperidine-4-yl)-N-methylacetamide], the activity at 3 µM in assay [1] is 142%; with hippocampal neurons it was 141%.

`COc1cccc(CN2CCC(N(C)C(=O)COc3nc(C)c(N)c(C)n3)CC2)c1` [Compound 88, 2-(5-amino-4,6-dimethylpyrimidine-2-yloxy)-N-(1-(3-methoxybenzyl)piperidine-4-yl)-N-methylacetamide hydrochloride]: the activity at 3 µM in assay [1] came out at 122%. In the assay on hippocampal neurons, the activity at 0.3 µM was 142%.

Regarding `Cc1nc(OCC(=O)N(C)C2CCN(CC(C)C)CC2)nc(C)c1N` [Compound 73, 2-(5-amino-4,6-dimethylpyrimidine-2-yloxy)-N-(1-isobutylpiperidine-4-yl)-N-methylacetamide], the results for the activity at 3 µM (in assay [1]; with hippocampal neurons) were 139% and 131%, respectively.

Regarding `Cc1ccccc1CN1CCC(N(C)C(=O)COc2nc(C)c(N)c(C)n2)CC1` [Compound 81, 2-(5-amino-4,6-dimethylpyrimidine-2-yloxy)-N-methyl-N-(1-(2-methylbenzyl)piperidine-4-yl)acetamide], the activity at 3 µM in assay [1] was found to be 126%; in the assay on hippocampal neurons, 115%.

Turning to `Cc1nc(OC(C)C(=O)N(C)C2CCN(CC3CC3)CC2)nc(C)c1N` (stereo not drawn) [Compound 98, 2-(5-amino-4,6-dimethylpyrimidine-2-yloxy)-N-(1-(cyclopropylmethyl)piperidine-4-yl)-N-methylpropanamide], the activity at 0.3 µM in assay [1] was found to be 129%. Also, in the assay on hippocampal neurons, the activity at 3 µM was determined as 130%.

As for `Cc1nc(OCC(=O)N(C)C2CCN(Cc3ccc(C(F)(F)F)cc3)CC2)nc(C)c1N` [Compound 69, 2-(5-amino-4,6-dimethylpyrimidine-2-yloxy)-N-methyl-N-(1-(4-(trifluoromethyl)benzyl)piperidine-4-yl)acetamide], the activity at 0.3 µM in assay [1] is 161%; with hippocampal neurons, 172%.

Regarding `Cc1nc(OCC(=O)N(C)C2CCN(C(=O)C3CCCCC3)CC2)nc(C)c1N` [Compound 76, 2-(5-amino-4,6-dimethylpyrimidine-2-yloxy)-N-(1-(cyclohexanecarbonyl)piperidine-4-yl)-N-methylacetamide hydrochloride], the activity at 3 µM in assay [1] came out at 149%; in the assay on hippocampal neurons, 123%.

Take `Cc1nc(OCC(=O)N(C)C2CCN(Cc3ccc(C(N)=O)cc3)CC2)nc(C)c1N` [Compound 64, 4-((4-(2-(5-amino-4,6-dimethylpyrimidine-2-yloxy)-N-methylacetamide)piperidine-1-yl)methyl)benzamide]: in assay [1], the activity at 3 µM was 177%. Further, in the assay on hippocampal neurons, the activity at 0.3 µM came out at 120%.

For `Cc1nc(OCC(=O)N(C)C2CCN(CCc3ccccc3)CC2)nc(C)c1N` [Compound 75, 2-(5-amino-4,6-dimethylpyrimidine-2-yloxy)-N-methyl-N-(1-phenetylpiperidine-4-yl)acetamide], the activity at 3 µM in assay [1] worked out at 150%; with hippocampal neurons, 125%.
